The METLIN SMRT retention time set (Domingo-Almenara et al. 2019)

Test: gradient 5% acetonitrile 3 min, to 50% in 2 min, to 85% in 15 min, held 3 min, 100 µL/min
Conditions: column: Zorbax Extend-C18 2.1 x 50 mm; eluents: water / acetonitrile, 0.1% formic acid
Procedure, shortened: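 Data were gathered over 3 months by HPLC coupled to a quadrupole time-of-flight mass spectrometer, operated in positive and negative ionization mode. Mixtures of ~100 pure standards ran on a Zorbax Extend-C18 column (2.1 × 50 mm, 1.8 μm) at 100 μL/min, with water and acetonitrile each containing 0.1% formic acid and dead and dwell volumes of 40 μL and 900 μL. Retention time was read from adduct peaks picked by computer and checked manually.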

| Compound | RP-LC retention time [s] |
| --- | --- |
| COc1cc(OC)cc(C(=O)Nc2nc(-c3ccc4c(c3)NC(=O)C(C)O4)c(C)s2)c1 (stereo not drawn) | 962 |
| COc1cccc(C(=O)N2CCC3(CC2)N=C(c2ccccc2)NO3)c1 | 728 |
| Cc1cccc(-c2nc(-c3ccc(S(=O)(=O)N4CCOCC4)cc3)no2)c1 | 1080 |
| CCN1C(=O)COc2ccc(-c3noc(-c4cccc(Br)c4)n3)cc21 | 1280 |
| Cc1nc(-c2ccccc2)nn1C1CCN(S(=O)(=O)c2ccccc2C(F)(F)F)C1 (stereo not drawn) | 897 |
| Cc1cc(Cc2ccc(S(=O)(=O)N3CCN(C)CC3)cc2)c(=O)[nH]n1 | 575 |
| CCCNS(=O)(=O)c1cc2c(cc1C)CCN2C(=O)CC | 818 |
| COc1ccccc1NC(=O)N1CCCC1c1nc(-c2ccccc2OC)no1 (stereo not drawn) | 894 |
| CCc1ccc(-c2noc(Cn3c(=O)n(Cc4ccccc4)c(=O)c4sccc43)n2)cc1 | 1210 |
| CCc1ccc(C2=C(C)C(N3CCCN(C(=O)CCC(C)C)CC3)=NS2(=O)=O)cc1 | 974 |
| COc1cccc(N2CCN(S(=O)(=O)c3ccsc3C(=O)NCC(C)C)CC2)c1 | 1000 |
| CCCn1cc(C(=O)NCc2cccnc2)c2cccnc21 | 580 |
| COc1ccc(CC(=O)Nc2ccc(-c3cn4ccc(C)nc4n3)cc2)cc1 | 639 |
| COc1ccccc1CNC(=O)C1CCN(S(C)(=O)=O)c2cc(Cl)ccc2O1 (stereo not drawn) | 910 |
| O=C(Nc1cnn(-c2ncncc2N2CCSCC2)c1)C1CCCCC1 | 778 |
| O=C(O)c1ccc(-c2c[nH]c3ncc(-c4ccccc4)cc23)cc1C1CCCC1 | 700 |
| Cc1sc2ccn(CC(C)C)c(=O)c2c1C(=O)NCc1ccc(N(C)C)cc1 | 652 |
| CCc1ccc(S(=O)(=O)N2CCC3(CC2)NCCN=C3NCc2cccc(F)c2)cc1 | 772 |
| Cc1cccc(CN2C(=O)CN(S(C)(=O)=O)CC2(C)C(=O)NCc2ccc(Cl)cc2)c1 (stereo not drawn) | 886 |
| COc1ccc(CN2CCc3nc(N4CCN(c5ccccn5)CC4)ncc3C2)c(OC)c1OC | 555 |
| CCc1nc(-c2csc(S(=O)(=O)N3CCCC(C(=O)NCc4ccc(C)cc4)C3)c2)no1 (stereo not drawn) | 1060 |
| Fc1ccccc1-c1noc(Cc2nnc(-c3cccc(Cl)c3)o2)n1 | 1080 |

| Compound | RP-LC retention time [s] |
| --- | --- |
| O=C(NCc1ccccc1)N1CCN(c2cnn3c(C4CC4)nnc3c2)CC1 | 578 |
| CCOC(=O)c1cc(S(=O)(=O)N2CCCC2C(=O)NC2CCCC2)cn1C (stereo not drawn) | 732 |
| CN1CCCCCCN(S(=O)(=O)c2cccc3nsnc23)CCC1=O | 783 |
| O=C(NCCc1ccccn1)C1CN(C(=O)c2cccs2)CC12CCCCC2 (stereo not drawn) | 602 |
| COC(=O)C1=CN(c2ccc(F)cc2)c2ccc(F)cc2S1(=O)=O | 847 |
| CN(Cc1ccco1)C(=O)CC1CCN(C(=O)c2cc3cc(Cl)ccc3[nH]2)CC1 | 897 |
| CCn1c(C(=O)NCc2ccc3c(c2)OCO3)cc2c(-c3cccs3)nn(-c3ccccc3)c21 | 1120 |
| CCOc1ccc(OCC)c(NC(=O)C2CC(=O)N(c3cccc(NC(C)=O)c3)C2)c1 (stereo not drawn) | 772 |
| COc1ccc(CNC(=O)N2C[C@@H]3CN(S(=O)(=O)c4cccc(F)c4)C[C@H](C2)O3)cc1 | 771 |
| COCC(=O)Nc1ccccc1NC(=O)c1ccsc1 | 648 |
| Cc1cn(C)nc1C(=O)N(CCN1CCOCC1)c1nc2c(C)ccc(C)c2s1 | 648 |
| Cc1cccc(NC(=O)Cn2ccc3ccn(C)c3c2=O)c1 | 772 |
| CCc1nc2cc(-c3noc(CNC(=O)Cc4ccccc4)n3)ccc2o1 | 819 |
| Cc1ccc(NC(=O)N2CCC3(C2)c2nc[nH]c2CCN3C)c(C)c1 (stereo not drawn) | 568 |
| Cc1nc2ccccc2n(CCC(=O)NCCc2c[nH]c3ccc(Cl)cc23)c1=O | 795 |
| Cc1cc2[nH]c(C(=O)Nc3ccc(F)cc3F)c(CN3CCOCC3)c2s1 | 710 |
| COc1cccc(CNc2cc(-n3nc(C)cc3C)ncn2)c1 | 896 |
| CCN(C(=O)CCCC(=O)OC)c1nc(-c2ccc(C)cc2)cs1 | 1180 |
| O=C(Cn1cccc1-c1nc(-c2ccc(Cl)cc2)cs1)N1CCN(c2ncccn2)CC1 | 1100 |
| CCOc1cccc2cc(C(=O)N3CCOCC3)oc12 | 718 |
| Cc1ccc(NC(=O)N2CCC(OC3CCN(S(C)(=O)=O)CC3)CC2)cc1C | 803 |
| COc1ccc(CCC(=O)NC(C)C(=O)N2CCN(c3ccccn3)CC2)cc1 (stereo not drawn) | 606 |

| Compound | RP-LC retention time [s] |
| --- | --- |
| O=C(c1ccccc1F)N1CCC(c2nc(-c3ccccc3)no2)C1 (stereo not drawn) | 911 |
| O=C(Nc1nc(-c2cccc3ccccc23)cs1)C1CCCO1 (stereo not drawn) | 978 |
| CCN(CC)CCNC(=O)c1sc2ncn(Cc3ccccc3F)c(=O)c2c1C | 638 |
| CCc1cc(=O)n(CC(=O)Nc2cc(Cl)ccc2C)c(N2CCOCC2)n1 | 771 |
| CCCC(=O)N1CC(c2nc(-c3ccccc3)no2)C2(CCOCC2)C1 (stereo not drawn) | 850 |
| O=C(Cn1ncc2c(N3CCN(c4ccccn4)CC3)ncnc21)Nc1cccc(F)c1 | 563 |
| CC1CCN(S(=O)(=O)c2ccc3nn(Cc4ccccc4)c(=O)n3c2)CC1 | 893 |
| Cc1ccccc1CNC(=O)c1cn2ccncc2n1 | 692 |
| Cn1cc(CN2C[C@@H](COc3cccnc3)[C@H](c3ccccn3)C2)cn1 | 528 |
| O=S(=O)(c1ccc2c(c1)-c1oncc1CO2)N1CCN(C2CCCCC2)CC1 | 640 |
| CC(=O)Nc1nsc(N2CCC(C(=O)N3CCN(c4cc(C)ccc4C)CC3)CC2)n1 | 820 |
| Cc1cccc(-c2cc3n(n2)CCCN(C(=O)C2CCOC2)C3)c1 (stereo not drawn) | 735 |
| CCOC(=O)c1nc(N(CC)c2cccc(C)c2)c2ccccc2n1 | 1050 |
| O=S(=O)(c1ccc2c(c1)CCCC2)N1CCCC1c1nc(-c2cccc(F)c2)no1 (stereo not drawn) | 1330 |
| O=C(OCc1ccncc1)c1cn(-c2cccc(F)c2)c(=O)c2ccccc12 | 713 |
| CC(C)c1nnc(-c2coc(S(=O)(=O)N3CCN(c4ccccn4)CC3)c2)o1 | 657 |
| O=C(c1ccoc1)N1CCCC1c1nc(-c2ccc(F)cc2F)no1 (stereo not drawn) | 869 |
| COCCC(=O)N1CCC(N2C(=O)C(OC)C23CCOCC3)CC1 (stereo not drawn) | 555 |
| Cc1ccc(S(=O)(=O)Nc2cccc(-c3cn4ccccc4n3)c2)cc1C | 648 |
| CC1CCN(C(=O)C2CCN(c3nc4ccc(-c5ccccc5)nc4s3)CC2)CC1 | 1140 |
| CC(C)c1ccc(CNc2nc3ccncc3n(Cc3ccccc3)c2=O)cc1 | 842 |
| Cc1nc(-c2csc(S(=O)(=O)N3CCC(C(=O)NCCC(C)C)CC3)c2)no1 | 868 |

| Compound | RP-LC retention time [s] |
| --- | --- |
| Brc1cccc(-c2noc(Cn3ccnc3)n2)c1 | 650 |
| CNC(=O)CCc1nc2ccccc2n(CC(=O)NCc2ccccc2Br)c1=O | 700 |
| Cc1ccc(-c2nnc(Cc3nc(-c4ccc(Br)cc4)no3)o2)cc1C | 1230 |
| O=C(Nc1ccccc1)C1CCCN(S(=O)(=O)c2c[nH]c(C(=O)N3CCCCCC3)c2)C1 (stereo not drawn) | 876 |
| CCOc1ccc2nc(Nc3ncc4c(n3)CCCC4=O)nc(C)c2c1 | 588 |
| Cc1ccc(CNC(=O)C2CCN(S(=O)(=O)c3ccc4[nH]c(=O)ccc4c3)CC2)cc1 | 738 |
| COc1ccc(CNC(=O)Cn2cnc3nc(N4CCC(C(=O)NC5CC5)CC4)sc3c2=O)cc1 | 666 |
| CCOc1ccc(Nc2nc(-c3nnn(-c4ccc(OCC)cc4)c3C)ns2)cc1 | 1130 |
| CCOCCCNC(=O)c1cc2c(n(-c3ccc(C(F)(F)F)cc3)c1=O)CCCC2=O | 853 |
| CNC(=O)c1noc([C@@H]2CC(F)(F)CN2Cc2cccn2C)n1 | 590 |
| Cc1nc2c(ccc3nc(NC(=O)NC4CCCC4)sc32)s1 | 785 |
| O=C(c1cc2ccccc2[nH]1)N1CCN(c2cc(-c3ccccc3)[nH]n2)CC1 | 792 |
| Cc1nnc(N2CCCC(C(=O)NCc3ccccc3F)C2)c2nn(-c3ccc(Cl)cc3)c(C)c12 (stereo not drawn) | 771 |
| Cc1nn(-c2cc(N3CCCC3)ncn2)c(C)c1CCC(=O)NCc1ccc2c(c1)OCO2 | 921 |
| CCOc1cccc(-c2noc(Cn3ncn4nc(-c5ccccc5Cl)cc4c3=O)n2)c1 | 1250 |
| O=C(NC1CCCC1)c1cccn1Cc1noc(-c2ccc(Cl)cc2)n1 | 1100 |
| CC(C)Cc1ccc(S(=O)(=O)N2CCC3(CC2)NCCN=C3NCc2ccccc2)cc1 | 856 |
| COc1ccc(-n2ncc3c(NC4CC4)ncnc32)cc1 | 619 |
| Cc1cccc(NC(=O)N2CCCC2c2nc(-c3cccc(Cl)c3)no2)c1 (stereo not drawn) | 1100 |
| CC(C)C(=O)N1CCc2ccccc2C1C(=O)N1CCN(c2ccc(F)cc2)CC1 (stereo not drawn) | 930 |
| Cc1cc(C)n(Cc2nc(-c3ccc(NC(=O)c4ccsc4)cc3)oc2C)n1 | 940 |
| Cc1nc(-c2cc(S(=O)(=O)NCC(=O)NC3CCCC3)c(C)s2)no1 | 774 |
